The results in this text go back to ChEMBL document CHEMBL1201862, “PubChem BioAssay data set” (2004).

Some test systems named below: OVCAR-3; HOP-92; TK-10; 786-0; EKVX; SW-620; RXF 393; SNB-19; SK-MEL-5; ACHN; OVCAR-4; NCI-H522; SF-268; HT-29; UO-31; UACC-62; OVCAR-8; HL-60; HCC 2998; KM12.
Common to all, as to assay: NCI anticancer screen, dose series, 48 h

SMILES strings stand for the structures.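 Tested at 5 concentrations; 48 h exposure; 96-well plates; endpoints linearly interpolated, else capped at highest concentration. GI50: concentration for 50% inhibition of growth.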 The source made the active and inactive calls. Rule as the data show it: active = GI50 up to about 1.1 µM and inactive = higher.

`C/C(=N/NC(=O)CC(=O)N(C(=O)c1ccccc1Cl)c1ccc(C)cc1)c1cc2ccccc2oc1=O`: the GI50 was > 100 µM (inactive) in the test with OVCAR-3; 21.5 µM (inactive) in the test on HOP-92; 95.5 µM (inactive) in the test on TK-10; > 100 µM (inactive) in the test on 786-0; > 100 µM (inactive) with EKVX; > 100 µM (inactive) with SW-620. Also, the GI50 with RXF 393 is > 100 µM (inactive); in the test on SNB-19, > 100 µM (inactive); with SK-MEL-5, 65.3 µM (inactive); in the test with ACHN, > 100 µM (inactive); in the test on OVCAR-4, > 100 µM (inactive); in the test with NCI-H522, > 100 µM (inactive). Also, the GI50 in the test on SF-268, in the test on HT-29, in the test with UO-31, in the test with UACC-62, in the test on OVCAR-8 and in the test with HL-60 was > 100 µM (inactive) in each case. Besides, the GI50 with HCC 2998 and in the test with KM12 was > 100 µM (inactive) each time.

With `C=C(Br)C(C)(Cl)CCC(Br)C(C)(C)Cl` (stereo not given), the GI50 in the test with OVCAR-3 was 20 µM (inactive); with HOP-92 it was 35.1 µM (inactive); in the test with TK-10, > 100 µM (inactive); in the test with 786-0, 20.6 µM (inactive); in the test on EKVX it was > 100 µM (inactive); with SW-620, 36.1 µM (inactive). Also, the GI50 with RXF 393 was 24.7 µM (inactive); in the test with SNB-19, > 100 µM (inactive); in the test on SK-MEL-5 it was 34.2 µM (inactive); in the test on ACHN, 29.6 µM (inactive); in the test with OVCAR-4, 47.8 µM (inactive); in the test on NCI-H522, 40.5 µM (inactive). Further, the GI50 with SF-268 is 63.8 µM (inactive); in the test on HT-29, 34.6 µM (inactive); with UO-31, > 100 µM (inactive); in the test with UACC-62 it was 86.9 µM (inactive); with OVCAR-8 it was 64.1 µM (inactive); in the test on HL-60 it was 20.3 µM (inactive). In addition, the GI50 was > 100 µM (inactive) in the test with HCC 2998 and 34.2 µM (inactive) with KM12.

As for `Brc1nc2c3ccccc3ncn2c1Br`, the GI50 in the test on OVCAR-3 is 0.316 µM (active); in the test on HOP-92 it was 27.9 µM (inactive); in the test on TK-10 it was 56.4 µM (inactive); in the test with 786-0, 37.2 µM (inactive); in the test on EKVX it was 21.1 µM (inactive); in the test on SW-620, 36.6 µM (inactive). Further, the GI50 in the test on RXF 393 was 35.6 µM (inactive); in the test on SNB-19, 36.9 µM (inactive); in the test on SK-MEL-5, 18.3 µM (inactive); in the test on ACHN it was 19.6 µM (inactive); in the test with OVCAR-4 it was 16 µM (inactive); in the test with NCI-H522, 18.7 µM (inactive). Moreover, the GI50 with SF-268 is 82.6 µM (inactive); with HT-29 it was 29.3 µM (inactive); with UO-31, 36.7 µM (inactive); in the test with UACC-62 it was 16.4 µM (inactive); in the test with OVCAR-8, 42.7 µM (inactive); in the test on HL-60, 22.5 µM (inactive). Besides, the GI50 in the test on HCC 2998 was 46.9 µM (inactive); in the test with KM12, 32.1 µM (inactive).

For `C/C1=C\C=C(\C(C)C)CC/C(C(=O)O)=C\CC/C(C)=C/CC1` [NEOCROTOCEMBRANEIC ACID], the GI50 with OVCAR-3 was 16.6 µM (inactive); in the test on HOP-92 it was 19.4 µM (inactive); with TK-10, 31.8 µM (inactive); with 786-0, 24.6 µM (inactive); in the test with EKVX, 27.1 µM (inactive); in the test on SW-620, 35.8 µM (inactive). Also, the GI50 was 20.7 µM (inactive) in the test with RXF 393; 24.9 µM (inactive) in the test with SNB-19; 19.3 µM (inactive) in the test on SK-MEL-5; 34.3 µM (inactive) in the test on ACHN; 33.4 µM (inactive) in the test with OVCAR-4; 19.3 µM (inactive) with NCI-H522. Besides, the GI50 was 32.9 µM (inactive) with SF-268; 32 µM (inactive) with HT-29; 30.3 µM (inactive) with UO-31; 13.1 µM (inactive) with UACC-62; 31.2 µM (inactive) in the test on OVCAR-8; 24.8 µM (inactive) in the test with HL-60. Besides, the GI50 with HCC 2998 is 18.7 µM (inactive); in the test with KM12, 20.6 µM (inactive).

With `O=C1OC(c2cccc(C(F)(F)F)c2)(c2cccc(C(F)(F)F)c2)c2ccc3ccccc3c21`, the GI50 is 4.23 µM (inactive) in the test with OVCAR-3; 28.8 µM (inactive) with HOP-92; > 10 µM (inactive) in the test with TK-10; > 10 µM (inactive) with 786-0; > 10 µM (inactive) in the test with EKVX; > 10 µM (inactive) with SW-620. Moreover, the GI50 in the test on RXF 393 was 5.65 µM (inactive); with SNB-19, 11.2 µM (inactive); in the test with SK-MEL-5 it was 4.59 µM (inactive); in the test with ACHN, 3.64 µM (inactive); in the test with OVCAR-4, > 10 µM (inactive); in the test with NCI-H522 it was > 10 µM (inactive). The GI50 in the test with SF-268 is 9.59 µM (inactive); with HT-29, > 10 µM (inactive); with UO-31 it was > 10 µM (inactive); in the test with UACC-62, > 10 µM (inactive); in the test on OVCAR-8, > 10 µM (inactive); in the test on HL-60 it was 3.56 µM (inactive). The GI50 with HCC 2998 was > 10 µM (inactive); with KM12 it was 79.1 µM (inactive).

As for `COc1cc(OC)c(OC)cc1/C=C\c1ccnc2ccccc12`, the GI50 was 0.387 µM (active) in the test with OVCAR-3; 1.21 µM (inactive) with HOP-92; 2.17 µM (inactive) in the test with TK-10; 0.687 µM (active) in the test on 786-0; 2.17 µM (inactive) in the test on EKVX; 0.679 µM (active) in the test on SW-620. The GI50 in the test with RXF 393 was 0.466 µM (active); in the test on SNB-19, 1.01 µM (active); in the test on SK-MEL-5 it was 0.414 µM (active); in the test with ACHN it was 1.29 µM (inactive); in the test on OVCAR-4 it was 4.51 µM (inactive); in the test on NCI-H522, 0.333 µM (active). Moreover, the GI50 in the test with SF-268 is 0.838 µM (active); in the test with HT-29, 0.522 µM (active); in the test on UO-31, 0.944 µM (active); in the test on UACC-62, 0.541 µM (active); in the test on OVCAR-8, 1.25 µM (inactive); in the test on HL-60 it was 0.344 µM (active). In addition, the GI50 with HCC 2998 is 1.02 µM (active); in the test on KM12, 0.675 µM (active).

`Cc1cc2nc3ccccc3n2c2nc(N)ccc12`: the GI50 in the test on OVCAR-3 was 63.7 µM (inactive); in the test on HOP-92, 16.6 µM (inactive); in the test on TK-10, 55.8 µM (inactive); in the test with 786-0 it was 16.7 µM (inactive); in the test with EKVX it was 53 µM (inactive); in the test on SW-620, 25.4 µM (inactive). Besides, the GI50 in the test on RXF 393 was 41.2 µM (inactive); with SNB-19, 20.6 µM (inactive); with SK-MEL-5, 13.6 µM (inactive); with ACHN, 15.4 µM (inactive); in the test with OVCAR-4, 44.9 µM (inactive); in the test on NCI-H522, 31.6 µM (inactive). Further, the GI50 in the test on SF-268 was 37.1 µM (inactive); in the test on HT-29 it was 34.3 µM (inactive); in the test on UO-31, 16.3 µM (inactive); in the test with UACC-62 it was 39.3 µM (inactive); with OVCAR-8, 15.8 µM (inactive); in the test on HL-60, 17.6 µM (inactive). In addition, the GI50 in the test on HCC 2998 was 39.6 µM (inactive); with KM12, 33 µM (inactive).

Regarding `COC(=O)NNc1c([N+](=O)[O-])cnn(-c2ccccc2)c1=O`, the GI50 in the test on OVCAR-3 is 1.97 µM (inactive); with HOP-92 it was 2.18 µM (inactive); with TK-10 it was 18.1 µM (inactive); with 786-0, 3.32 µM (inactive); with EKVX, 3.82 µM (inactive); in the test on SW-620 it was 1.07 µM (active). The GI50 is 3.73 µM (inactive) with RXF 393; 10.5 µM (inactive) in the test with SNB-19; 4.07 µM (inactive) with SK-MEL-5; 4.44 µM (inactive) in the test with ACHN; 2.07 µM (inactive) with OVCAR-4; 0.995 µM (active) with NCI-H522. Besides, the GI50 in the test with SF-268 was 3.1 µM (inactive); with HT-29, 2.04 µM (inactive); in the test on UO-31 it was 8.93 µM (inactive); in the test with UACC-62 it was 2.11 µM (inactive); in the test on OVCAR-8, 1.78 µM (inactive); in the test on HL-60 it was 1.39 µM (inactive). For the same molecule, the figures for the GI50 with HCC 2998 and with KM12 were 5.36 µM (inactive) and 5.19 µM (inactive), respectively.

For `COc1ccc2c(c1)C(=O)CC(C(N)=O)C2` (stereo not given), the GI50 in the test on OVCAR-3, in the test on HOP-92, with TK-10, in the test with 786-0, in the test with EKVX and in the test with SW-620 was > 100 µM (inactive) in each case. In addition, the GI50 with RXF 393, with SNB-19, with SK-MEL-5, with ACHN, in the test with OVCAR-4 and with NCI-H522 was > 100 µM (inactive) throughout. Also, the GI50 in the test with SF-268, with HT-29, in the test on UO-31, in the test with UACC-62, in the test on OVCAR-8 and in the test with HL-60 was > 100 µM (inactive) each time. For the same molecule, the GI50 in the test on HCC 2998 and with KM12 was > 100 µM (inactive) throughout.

For the molecule `CC1=C(C(=O)Nc2ccc(Cl)c(Cl)c2)C(c2ccc([N+](=O)[O-])cc2)C(C(=O)Nc2ccc(Cl)c(Cl)c2)=C(C)N1`, the GI50 in the test with OVCAR-3 was 1.66 µM (inactive); in the test on HOP-92, 2.4 µM (inactive); in the test on TK-10, 7.18 µM (inactive); in the test with 786-0, 2.81 µM (inactive); in the test on EKVX it was 3.13 µM (inactive); in the test on SW-620, 3.05 µM (inactive). For the same molecule, the GI50 in the test on RXF 393 is 1.78 µM (inactive); in the test on SNB-19, 4.65 µM (inactive); in the test with SK-MEL-5, 1.67 µM (inactive); with ACHN it was 3.09 µM (inactive); with OVCAR-4 it was 2.64 µM (inactive); in the test on NCI-H522 it was 2.55 µM (inactive). The GI50 is 3.38 µM (inactive) in the test on SF-268; 2.42 µM (inactive) with HT-29; 2.69 µM (inactive) in the test on UO-31; 1.7 µM (inactive) in the test with UACC-62; 2.13 µM (inactive) in the test on OVCAR-8; 0.361 µM (active) in the test on HL-60. Also, the GI50 in the test with HCC 2998 is 2 µM (inactive); in the test with KM12, 1.82 µM (inactive).
